The text below walks through data of patent publication US4981954A, “Novel azoxy compounds and process for production thereof” (Kowa Company, Ltd., priority 1987, dated 1991).

≈ marks a conversion by molar mass, not a printed value.

Assay type in all cases: cell-based
For one test, the system named is Aspergillus fumigatus. Briefly: Antifungal activity, minimum growth inhibition concentration (MIC), Aspergillus fumigatus. The note with it: Sabouraud dextrose agar, 27° C., 2 to 4 days. The protocol:
(§1) The minimum growth inhibition concentrations (MIC) of the present substances against eumycetes are as tabulated below.
(§2) Culture medium: Sabouraud dextrose agar
(§3) Culturing conditions: 27° C., 2 to 4 days

Another test has as its system Trichophyton rubrum. Briefly: Antifungal activity, minimum growth inhibition concentration (MIC), Trichophyton rubrum. The note with it: Sabouraud dextrose agar, 27° C., 2 to 4 days. The protocol: as §1, §2, §3
The subject of test [1] is Trichophyton mentagraphytes. Briefly: Antifungal activity, minimum growth inhibition concentration (MIC), Trichophyton mentagraphytes. On the procedure: as §1, §2, §3
The next test concerns Candida albicans. Briefly: Antifungal activity, minimum growth inhibition concentration (MIC), Candida albicans. To be noted: Sabouraud dextrose agar, 27° C., 2 to 4 days. The protocol:
as §1, §2, §3

A further test deals with Cryptococcus neoformans. Briefly: Antifungal activity, minimum growth inhibition concentration (MIC), Cryptococcus neoformans. The note with it: Sabouraud dextrose agar, 27° C., 2 to 4 days. On the procedure:
as §1, §2, §3

By MIC is commonly meant the smallest concentration in the dilution series that meets the test's criterion for growth inhibition. Low values mean a more susceptible organism, high ones a less susceptible organism.

Turning to `CCCCC=C[N+]([O-])=NC(C)C(C)O` (stereo not shown) [KA-7367B], the MIC came out at 100 µg/mL (≈ 499 µM) in the test on Aspergillus fumigatus; 100 µg/mL (≈ 499 µM) in the test on Trichophyton rubrum; 100 µg/mL (≈ 499 µM) in test [1]; 50 µg/mL (≈ 250 µM) against Candida albicans; 100 µg/mL (≈ 499 µM) in the test with Cryptococcus neoformans.

Turning to `CCCCC=C[N+]([O-])=NC(C)C(C)=O` (stereo not shown) [KA-7367A], the MIC with Aspergillus fumigatus came to 6.25 µg/mL (≈ 31.5 µM); against Trichophyton rubrum, 3.2 µg/mL (≈ 16.1 µM); in test [1] it was 6.25 µg/mL (≈ 31.5 µM); against Candida albicans it was 1.6 µg/mL (≈ 8.07 µM); with Cryptococcus neoformans, 3.2 µg/mL (≈ 16.1 µM).
